Source: patent EP1430933A2, “Cosmetic and pharmaceutical compositions comprising steroid sulfatase inhibitors and their use for the reduction of hair loss” (Henkel Kommanditgesellschaft auf Aktien, priority 2002, dated 2004)

Target: T1, Arylsulfatase (EC 3.1.6.1) (Klebsiella aerogenes, UniProt P20713)
T1 construct: purchased Sigma S-1629
T1 sequence (P20713 21-464): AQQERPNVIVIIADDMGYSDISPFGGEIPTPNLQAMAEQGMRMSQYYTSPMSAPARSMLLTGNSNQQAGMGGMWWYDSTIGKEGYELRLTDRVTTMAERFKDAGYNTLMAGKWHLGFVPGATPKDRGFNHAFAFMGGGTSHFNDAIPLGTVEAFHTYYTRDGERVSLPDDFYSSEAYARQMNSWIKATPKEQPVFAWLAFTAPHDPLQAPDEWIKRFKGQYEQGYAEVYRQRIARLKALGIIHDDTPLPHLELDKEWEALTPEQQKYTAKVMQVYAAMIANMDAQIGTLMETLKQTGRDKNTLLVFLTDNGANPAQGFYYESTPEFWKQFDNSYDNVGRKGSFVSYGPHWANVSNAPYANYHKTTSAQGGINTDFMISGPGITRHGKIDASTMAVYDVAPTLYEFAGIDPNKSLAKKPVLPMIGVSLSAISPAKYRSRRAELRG
Experiment: Arylsulfatase enzyme test (Sigma sulfatase enzyme assay S-1629; p-nitrophenol formation from pNPS, 420 nm)
Assay type: biochemical
Conditions: pH 7,1, 37°C, 8 mM pNPS
Text: Überprüfung der inhibitorischen Wirkung der Steroidsulfatase-Inhibitoren (in vitro)
Da die Sulfatase des Haarfollikels nicht zur Verfügung stand, diente eine handelsübliche Arylsulfatase (EC 3.1.6.1) aus Aerobacter aerogenes als Modellenzym, um die Hemmwirkung der erfindungsgemäß verwendeten Inhibitoren zu testen. Die Tests wurden mit dem Sulfatase-Enzymassay Product No. S-1629 von Sigma gemäß den Angaben im Sigma Quality Control Test Procedure-Datenblatt durchgeführt. Als Referenz-Inhibitoren dienten Ascorbinsäure und ATP.
Zur Auswertung wurde die Arylsulfatase-katalysierte Bildung von p-Nitrophenol aus dem Substrat p-Nitrophenylsulfat (pNPS) spektrophotometrisch (λ = 420 nm) verfolgt. Die Reaktionslösungen von 1000 µl, die auf eine Reaktionstemperatur von 37°C temperiert wurden, enthielten 187 mM Tris/HCl (pH 7,1), 8 mM pNPS und eine Startkonzentration von 0,05 U/ml Arylsulfatase. Die Einheit U der Enzymaktivität wurde so definiert, dass 1 U Sulfatase 1,0 µmol pNPS pro Minute bei pH 7,1 und 37°C hydrolysiert. Die Testdurchführung ist auch offenbart bei H.R. Fowler und D. H. Rammler, Biochemistry 3, 230, 1964. Die Reaktion wurde durch Zugabe des Enzyms gestartet und der Anstieg der Absorption bei λ = 420 nm über 5 Minuten verfolgt. Der lineare Anstieg der Absorption (A) pro Zeiteinheit (t) ist hierbei ein Maß für die Aktivität des Enzyms (ΔA/Δt). Die Aktivität des Enzyms in Abwesenheit eines Inhibitors, (ΔA1/Δt1 ), wurde als Referenz gleich 100% gesetzt. Unter analogen Bedingungen wurden die Aktivitäten in Gegenwart eines Inhibitors (ΔA2/Δt2) bestimmt. Die Hemmwirkung des Inhibitors bzw. die Minderung der Enzymaktivität wurde dann berechnet gemäß der Formel 100% - (ΔA2/Δt2 )/( ΔA1/Δt1 )%.

Hemmwirkung (ACH-Lösung Locron® L 0,01 % (v/v)): Keine Hemmung meßbar | Hemmwirkung (ACH-Lösung Locron® L 0,1 % (v/v)): 6% | Hemmwirkung (ACH-Lösung Locron® L 0,5 % (v/v)): 27% | Hemmwirkung (ACH-Lösung Locron® L 1 % (v/v)): 52%
Substance: Aluminiumchlorohydrat [Aluminiumchlorohydrat (ACH)]
